Assay results taken from ChEMBL document CHEMBL1131843, “Synthesis and biological evaluation of novel 1beta-methylcarbapenems having a new moiety at C-2” (Bioorg Med Chem Lett, 1999).
Values after ≈ are worked out from the molar mass of the structure shown.

Experiments:
Pseudomonas aeruginosa [1] = assay: In vitro antibacterial activity against Pseudomonas aeruginosa 1771M; type: functional
Enterobacter cloacae = assay: In vitro antibacterial activity against Enterobacter cloacae 1321E; type: functional
Enterococcus faecium = assay: In vitro antibacterial activity against Streptococcus faecium MD 8b; type: functional
Escherichia coli [2] = assay: In vitro antibacterial activity against Escherichia coli 1507E; type: functional
Staphylococcus aureus = assay: In vitro antibacterial activity against Staphylococcus aureus SG 511; type: functional
Streptococcus pyogenes = assay: In vitro antibacterial activity against Streptococcus pyogenes 77A; type: functional
Salmonella typhimurium = assay: In vitro antibacterial activity against Salmonella Typhimurium; type: functional, Salmonella enterica subsp. enterica serovar Typhimurium
Klebsiella aerogenes = assay: In vitro antibacterial activity against Klebsiella aerogenes 1522E; type: functional
Pseudomonas aeruginosa [3] = assay: In vitro antibacterial activity against Pseudomonas aeruginosa 1592E; type: functional
[4] = molecular target: T1, Dipeptidase 1 (Sus scrofa) (UniProt P22412); assay: Relative hydrolysis to meropenem by partially purified porcine renal Dehydropeptidase-1 was reported.; design: scale not given: the % may be the effect or the level left
T1 sequence (whole entry): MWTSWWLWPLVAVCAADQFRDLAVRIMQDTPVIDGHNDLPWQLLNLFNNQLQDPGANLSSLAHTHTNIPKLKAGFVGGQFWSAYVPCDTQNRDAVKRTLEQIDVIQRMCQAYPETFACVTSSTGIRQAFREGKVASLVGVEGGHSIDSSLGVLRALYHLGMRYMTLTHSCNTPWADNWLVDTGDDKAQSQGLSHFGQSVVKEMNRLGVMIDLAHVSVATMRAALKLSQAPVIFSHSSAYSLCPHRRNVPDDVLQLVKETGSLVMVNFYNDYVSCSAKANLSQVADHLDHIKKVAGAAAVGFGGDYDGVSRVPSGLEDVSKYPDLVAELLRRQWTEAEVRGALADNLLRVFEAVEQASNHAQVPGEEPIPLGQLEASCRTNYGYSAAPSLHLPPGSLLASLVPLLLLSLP

Escherichia coli [5] = assay: In vitro antibacterial activity against Escherichia coli 078; type: functional
[6] = Area under curve (AUC) was determined in mice at a single subcutaneous administration of 40 mg/kg (n=4); type: ADME, organism-based; design: dose 40 mg/kg, route subcutaneous; details: mouse, in vivo, sc
Mus musculus [7] = assay: In vivo therapeutic efficacy was determined against Pseudomonas aeruginosa 1771M by a single sc administration in mice; type: functional; details: read-out: PD50
Mus musculus [8] = assay: In vivo therapeutic efficacy was determined against Staphylococcus aureus Y-80-1953 by a single sc administration in mice; type: functional; details: read-out: PD50
[9] = Half life was determined in mice at a single subcutaneous administration of 40 mg/kg (n=4); type: ADME, organism-based; design: dose 40 mg/kg, route subcutaneous; details: mouse, in vivo, sc
[10] = Maximum time was determined in mice at a single subcutaneous administration of 40 mg/kg (n=4); type: ADME, organism-based; design: dose 40 mg/kg, route subcutaneous; details: mouse, in vivo, sc
Mus musculus [11] = assay: In vivo therapeutic efficacy was determined against Streptococcus pyogenes 77A by a single sc administration in mice; type: functional; details: read-out: PD50
[12] = Maximum plasma concentration was determined in mice at a single subcutaneous administration of 40 mg/kg (n=4); type: ADME, organism-based; design: dose 40 mg/kg, route subcutaneous; details: mouse, sc
Mus musculus [13] = assay: In vivo therapeutic efficacy was determined against Escherichia coli 078 by a single sc administration in mice; type: functional; details: read-out: PD50
[14] = Pseudomonas aeruginosa, read-out: MIC
[15] = Enterobacter cloacae, read-out: MIC
[16] = Enterococcus faecium, read-out: MIC
[17] = Staphylococcus aureus, read-out: MIC
[18] = Streptococcus pyogenes, read-out: MIC
[19] = Salmonella enterica, read-out: MIC
[20] = Klebsiella aerogenes, read-out: MIC
[21] = Escherichia coli, read-out: MIC

CC(=O)O[C@@H]1CN(C(=O)[C@@H]2C[C@H](SC3=C(C(=O)O)N4C(=O)[C@H]([C@@H](C)O)[C@H]4[C@H]3C)CN2)C[C@H]1OC(C)=O
MIC (Pseudomonas aeruginosa [1]; [14]): 0.098 µg/mL (≈ 0.186 µM)
MIC (Enterobacter cloacae; [15]): 0.013 µg/mL (≈ 0.0247 µM)
MIC (Enterococcus faecium; [16]): 6.25 µg/mL (≈ 11.9 µM)
MIC (Escherichia coli [2]): 0.025 µg/mL (≈ 0.0476 µM)
MIC (Staphylococcus aureus; [17]): 0.195 µg/mL (≈ 0.371 µM)
MIC (Streptococcus pyogenes; [18]): 0.007 µg/mL (≈ 0.0133 µM)
MIC (Salmonella typhimurium; [19]): 0.049 µg/mL (≈ 0.0932 µM)
MIC (Klebsiella aerogenes; [20]): 0.049 µg/mL (≈ 0.0932 µM)
MIC (Pseudomonas aeruginosa [3]; [14]): 0.098 µg/mL (≈ 0.186 µM)
Stability [4]: 50%
MIC (Escherichia coli [5]; [21]): 0.013 µg/mL (≈ 0.0247 µM)

CC(=O)O[C@H]1CN(C(=O)[C@@H]2C[C@H](SC3=C(C(=O)O)N4C(=O)[C@H]([C@@H](C)O)[C@H]4[C@H]3C)CN2)C[C@@H]1OC(C)=O (stereo in doubt; 1a) [listing 1 of 2 here]
MIC (Pseudomonas aeruginosa [1]; [14]): 0.098 µg/mL (≈ 0.186 µM)
MIC (Enterobacter cloacae; [15]): 0.013 µg/mL (≈ 0.0247 µM)
MIC (Enterococcus faecium; [16]): 6.25 µg/mL (≈ 11.9 µM)
AUC [6]: 6830 ng·h/mL
ED50 (Mus musculus [7]): 3.93 mg/kg
MIC (Escherichia coli [2]): 0.025 µg/mL (≈ 0.0476 µM)
ED50 (Mus musculus [8]): 2.18 mg/kg
MIC (Staphylococcus aureus; [17]): 0.098 µg/mL (≈ 0.186 µM)
MIC (Streptococcus pyogenes; [18]): 0.007 µg/mL (≈ 0.0133 µM)
half-life [9]: 15 min
Tmax [10]: 10.2 min
MIC (Salmonella typhimurium; [19]): 0.049 µg/mL (≈ 0.0932 µM)
ED50 (Mus musculus [11]): 4.79 mg/kg
MIC (Klebsiella aerogenes; [20]): 0.049 µg/mL (≈ 0.0932 µM)
MIC (Pseudomonas aeruginosa [3]): 0.195 µg/mL (≈ 0.371 µM)
Cmax [12]: 16600 ng/mL
MIC (Escherichia coli [5]; [21]): 0.013 µg/mL (≈ 0.0247 µM)
ED50 (Mus musculus [13]): 0.94 mg/kg

C[C@@H](O)[C@H]1C(=O)N2C(C(=O)O)=C(S[C@@H]3CN[C@H](C(=O)N4C[C@H](OC(N)=O)[C@@H](OC(N)=O)C4)C3)[C@H](C)[C@H]12
MIC (Pseudomonas aeruginosa [1]; [14]): 0.391 µg/mL (≈ 0.741 µM)
MIC (Enterobacter cloacae; [15]): 0.025 µg/mL (≈ 0.0474 µM)
MIC (Enterococcus faecium; [16]): 6.25 µg/mL (≈ 11.8 µM)
MIC (Escherichia coli [2]): 0.025 µg/mL (≈ 0.0474 µM)
MIC (Staphylococcus aureus; [17]): 0.195 µg/mL (≈ 0.37 µM)
MIC (Streptococcus pyogenes; [18]): 0.025 µg/mL (≈ 0.0474 µM)
MIC (Salmonella typhimurium; [19]): 0.049 µg/mL (≈ 0.0929 µM)
MIC (Klebsiella aerogenes; [20]): 0.049 µg/mL (≈ 0.0929 µM)
MIC (Pseudomonas aeruginosa [3]; [14]): 0.781 µg/mL (≈ 1.48 µM)
Stability [4]: 53%
MIC (Escherichia coli [5]; [21]): 0.025 µg/mL (≈ 0.0474 µM)

CC(=O)O[C@H]1CN(C(=O)[C@@H]2C[C@H](SC3=C(C(=O)O)N4C(=O)[C@H]([C@@H](C)O)[C@H]4[C@H]3C)CN2)C[C@@H]1OC(C)=O (stereo in doubt; 1a) [listing 2 of 2 here]
Stability [4]: 63%

CC(=O)O[C@H]1CN(C(=O)[C@@H]2C[C@H](SC3=C(C(=O)O)N4C(=O)[C@H]([C@@H](C)O)[C@H]4[C@H]3C)CN2)C[C@@H]1OC(C)=O (stereo in doubt; 1f) [listing 1 of 2 here]
MIC (Pseudomonas aeruginosa [1]): 0.195 µg/mL (≈ 0.371 µM)
MIC (Enterobacter cloacae): 0.013 µg/mL (≈ 0.0247 µM)
MIC (Enterococcus faecium): 6.25 µg/mL (≈ 11.9 µM)
MIC (Staphylococcus aureus): 0.195 µg/mL (≈ 0.371 µM)
MIC (Streptococcus pyogenes): 0.007 µg/mL (≈ 0.0133 µM)
MIC (Salmonella typhimurium): 0.049 µg/mL (≈ 0.0932 µM)
MIC (Klebsiella aerogenes): 0.049 µg/mL (≈ 0.0932 µM)
MIC (Pseudomonas aeruginosa [3]): 1.563 µg/mL (≈ 2.97 µM)
MIC (Escherichia coli [5]): 0.025 µg/mL (≈ 0.0476 µM)

C[C@@H](O)[C@H]1C(=O)N2C(C(=O)O)=C(SCCNC=N)C[C@H]12 [IMIPENEM ANHYDROUS]
MIC (Pseudomonas aeruginosa [1]; [14]): 0.195 µg/mL (≈ 0.651 µM)
MIC (Enterobacter cloacae; [15]): 0.195 µg/mL (≈ 0.651 µM)
MIC (Enterococcus faecium; [16]): 1.56 µg/mL (≈ 5.22 µM)
MIC (Escherichia coli [2]): 0.195 µg/mL (≈ 0.651 µM)
MIC (Staphylococcus aureus; [17]): 0.013 µg/mL (≈ 0.0434 µM)
MIC (Streptococcus pyogenes; [18]): 0.004 µg/mL (≈ 0.0134 µM)
MIC (Salmonella typhimurium; [19]): 0.781 µg/mL (≈ 2.61 µM)
MIC (Klebsiella aerogenes; [20]): 0.391 µg/mL (≈ 1.31 µM)
MIC (Pseudomonas aeruginosa [3]; [14]): 0.781 µg/mL (≈ 2.61 µM)
Stability [4]: 19%
MIC (Escherichia coli [5]; [21]): 0.098 µg/mL (≈ 0.327 µM)

C[C@@H](O)[C@H]1C(=O)N2C(C(=O)O)=C(S[C@H]3CN[C@H](C(=O)N4C[C@H](O)[C@@H](O)C4)C3)[C@H](C)[C@H]12
MIC (Pseudomonas aeruginosa [1]; [14]): 0.781 µg/mL (≈ 1.77 µM)
MIC (Enterobacter cloacae; [15]): 0.195 µg/mL (≈ 0.442 µM)
MIC (Enterococcus faecium; [16]): 25 µg/mL (≈ 56.6 µM)
MIC (Escherichia coli [2]): 0.098 µg/mL (≈ 0.222 µM)
MIC (Staphylococcus aureus; [17]): 0.195 µg/mL (≈ 0.442 µM)
MIC (Streptococcus pyogenes; [18]): 0.025 µg/mL (≈ 0.0566 µM)
MIC (Salmonella typhimurium; [19]): 0.195 µg/mL (≈ 0.442 µM)
MIC (Klebsiella aerogenes; [20]): 0.195 µg/mL (≈ 0.442 µM)
MIC (Pseudomonas aeruginosa [3]; [14]): 100 µg/mL (≈ 226 µM)
MIC (Escherichia coli [5]; [21]): 0.098 µg/mL (≈ 0.222 µM)

CC(=O)O[C@H]1CN(C(=O)[C@@H]2C[C@H](SC3=C(C(=O)O)N4C(=O)[C@H]([C@@H](C)O)[C@H]4[C@H]3C)CN2)C[C@@H]1OC(C)=O (stereo in doubt; 1f) [listing 2 of 2 here]
Stability [4]: 66%

C[C@@H](O)[C@H]1C(=O)N2C(C(=O)O)=C(S[C@H]3CN[C@H](C(=O)N4C[C@@H](O)[C@H](O)C4)C3)[C@H](C)[C@H]12
MIC (Pseudomonas aeruginosa [1]; [14]): 0.391 µg/mL (≈ 0.886 µM)
MIC (Enterobacter cloacae; [15]): 0.195 µg/mL (≈ 0.442 µM)
MIC (Enterococcus faecium; [16]): 12.5 µg/mL (≈ 28.3 µM)
MIC (Escherichia coli [2]): 0.195 µg/mL (≈ 0.442 µM)
MIC (Staphylococcus aureus; [17]): 0.195 µg/mL (≈ 0.442 µM)
MIC (Streptococcus pyogenes; [18]): 0.013 µg/mL (≈ 0.0294 µM)
MIC (Salmonella typhimurium; [19]): 0.391 µg/mL (≈ 0.886 µM)
MIC (Klebsiella aerogenes; [20]): 0.195 µg/mL (≈ 0.442 µM)
MIC (Pseudomonas aeruginosa [3]; [14]): 100 µg/mL (≈ 226 µM)
MIC (Escherichia coli [5]; [21]): 0.098 µg/mL (≈ 0.222 µM)

C[C@@H](O)[C@H]1C(=O)N2C(C(=O)O)=C(S[C@@H]3CN[C@H](C(=O)N(C)C)C3)[C@H](C)[C@H]12 [MEROPENEM]
MIC (Pseudomonas aeruginosa [1]; [14]): 0.049 µg/mL (≈ 0.128 µM)
MIC (Enterobacter cloacae; [15]): 0.025 µg/mL (≈ 0.0652 µM)
MIC (Enterococcus faecium; [16]): 12.5 µg/mL (≈ 32.6 µM)
AUC [6]: 6860 ng·h/mL
ED50 (Mus musculus [7]): 4.26 mg/kg
MIC (Escherichia coli [2]): 0.025 µg/mL (≈ 0.0652 µM)
ED50 (Mus musculus [8]): 11.1 mg/kg
MIC (Staphylococcus aureus; [17]): 0.098 µg/mL (≈ 0.256 µM)
MIC (Streptococcus pyogenes; [18]): 0.002 µg/mL (≈ 0.00522 µM)
half-life [9]: 16.2 min
Tmax [10]: 10.2 min
MIC (Salmonella typhimurium; [19]): 0.025 µg/mL (≈ 0.0652 µM)
ED50 (Mus musculus [11]): 4.55 mg/kg
MIC (Klebsiella aerogenes; [20]): 0.049 µg/mL (≈ 0.128 µM)
MIC (Pseudomonas aeruginosa [3]; [14]): 0.195 µg/mL (≈ 0.509 µM)
Stability [4]: 100%
Cmax [12]: 15600 ng/mL
MIC (Escherichia coli [5]; [21]): 0.013 µg/mL (≈ 0.0339 µM)
ED50 (Mus musculus [13]): 0.65 mg/kg
